What was measured:
naive CD4+ T cells = experiment: In vitro iTreg differentiation (Foxp3+ of CD4+ cells); format: cell-based, mouse; conditions: 20 μM, 72 h
Description: C57BL/6 mice were sacrificed, and their spleens and peripheral lymph nodes were removed and gently dissociated into single-cell suspensions. Naive T cells were isolated using the Mouse CD4 Naive T Cell Isolation Kit (BioLegend, Stem Cell, or Thermo Fisher Scientific). Flow cytometry verified that the purity (CD4^+CD25^−CD62L^hi) of the enriched subpopulation was typically higher than 95%. All T cells were cultured using RPMI-1640 medium (Gibco) supplemented with 10% heat-inactivated fetal bovine serum (Gibco), 2 mM L-glutamine (Gibco), 10,000 units/mL of penicillin, 10,000 µg/mL of streptomycin, and 25 µg/mL of Gibco Amphotericin B (Thermo Fisher Scientific), 10 mM HEPES (Gibco), 1 mM Sodium pyruvate, MEM Non-Essential Amino Acids (Life Technologies) and 55 μM β-mercaptoethanol (Gibco). 0.1 million naive CD4^+ T cells were activated with plate-coated anti-CD3 (2.5 μg/ml; BD Biosciences) and soluble anti-CD28 (2 μg/ml; BD Biosciences) antibodies. The Th1 cell differentiation condition included recombinant murine (rm)IL-12 (10 ng/ml, PeproTech) and anti-IL-4 (10 μg/ml, BioLegend). The Th17 cell differentiation condition included rmIL-6 (10 ng/ml, PeproTech), rmTGF-β1 (5 ng/ml, PeproTech), rmIL-23 (10 ng/ml, PeproTech), anti-IL-4 (5 μg/ml, BioLegend) and anti-IFN-γ (10 μg/ml, eBioscience). The inducible T regulatory cell (iTreg) differentiation condition included rmTGF-β (5 ng/ml, PeproTech). 0.1 million naive CD8^+ T cells were activated with plate-coated anti-CD3 (10 μg/ml; BD Biosciences) and plate-coated anti-CD28 (10 μg/ml; BD Biosciences) antibodies. The Tc17 cell differentiation condition included rmIL-6 (10 ng/ml, PeproTech), rmTGF-β1 (2 ng/ml, PeproTech), rmIL-23 (25 ng/ml, PeproTech), rmIL1-β (5 ng/ml, PeproTech), and anti-IFN-γ (10 μg/ml, eBioscience). The Tc1 cell differentiation condition included rmIL-2 (5 ng/ml, PeproTech) and rm IL-12 (1 ng/ml, PeproTech). Different concentrations of Dleu2-17aa and scrPEP (Genscript) were added to the T cell culture from the beginning unless specified. Cells were cultured in U-bottom 96-well plates for 72 h and detected by flow cytometry.
For in vitro mouse T cell differentiation, after 72 h of induction, cells were activated for 4–6 h at 37 °C with the Cell Stimulation Cocktail (Thermo Fisher Scientific) if intracellular cytokine staining is needed, surface markers were stained in FACS buffer (PBS containing 2% FBS) for 30 min at 4 °C protected from light. Cells were then fixed and permeabilized with the Foxp3 Staining Buffer Set (eBioscience) or BD Cytofix/Cytoperm (BD Biosciences) and were stained with fluorescent antibodies. After washing, stained cells were assayed with an LSRFortessa (BD) flow cytometer, and data were analyzed with FlowJo software. Single-cell suspensions from EAE mouse spleen or CNS (day 16 post-immunization) were derived through mechanical separation and passage through a 70-μm filter (Fisherbrand) and analyzed using similar steps. For flow cytometry, antibodies against CD4 (clone GK1.5, 1:200), CD62L (clone MEL-14, 1:200), CD44 (clone IM7, 1:200), CD25 (clone PC61.5, 1:200), IL-17A (clone eBio17B7, 1:200), IFN-γ (clone XMG1.2, 1:200), FoxP3 (clone FJK-16s, 1:200), CD184 (clone 2B11/CXCR4, 1:100), CD152 (clone BNI3 1:100) and CD357 (clone DTA-1 1:100) were from eBioscience, CD3 (clone 145-2C11, 1:200) was from Biolegend and TGFBI (1:100) were from proteintech. For Dleu2-17aa expression detection, C57BL/6 mice were sacrificed, and their spleens were removed and gently dissociated into single-cell suspensions. An Fc blocker was used to reduce potential nonspecific antibody staining caused by IgG. Surface staining was performed using monoclonal antibodies against CD45 (clone 30-F11), CD3 (clone 145-2C11), CD19 (clone SJ25C1), CD11c (clone N418), MHCII (clone M5/114.15.2), F4/80 (clone BM8) all at a dilution of 1:200 (from Biolengend) followed by fixation and permeabilization of the nuclear membrane BD Cytofix/Cytoperm (BD Biosciences). […]

[1] = test system: CD4+ T cells in CNS of EAE mice; experiment: Flow cytometry of CNS T cells of treated EAE mice; format: in vivo, mouse; conditions: 100 μg i.v., replicate 4

ARGPARRMRGGRRRRLR [scrPEP, scrambled control peptide of Dleu2-17aa]
Foxp3+/ CD4+ Cells (%) (naive CD4+ T cells; replicate 1): 32.8% | Foxp3+/ CD4+ Cells (%) (naive CD4+ T cells; replicate 2): 22.9% | Foxp3+/ CD4+ Cells (%) (naive CD4+ T cells; replicate 3): 16.77% | Foxp3+/ CD4+ Cells (%) (naive CD4+ T cells; replicate 4): 32.13% | Foxp3+/ CD4+ Cells (%) (naive CD4+ T cells; replicate 5): 22.9% | Foxp3+/ CD4+ Cells (%) (naive CD4+ T cells; replicate 6): 10.3% | Foxp3+/ CD4+ Cells (%) (naive CD4+ T cells; replicate 7): 30.6% | CD4+ / Live Cells(%) [1]: 10.2% | Foxp3+/ CD4+ Cells (%) [1]: 10.5% | IFN-γ+/ CD4+ Cells(%) [1]: 22.6%

From article PMC10933344, “A lncRNA Dleu2-encoded peptide relieves autoimmunity by facilitating Smad3-mediated Treg induction” (EMBO Reports, 2024)
